Converted amounts (≈) assume the structure as drawn. Where two headings read alike, the source gives them in different places.
How the values were obtained:
HUVEC = assay: Metabolic activity assessment (CellTiter 96 Aqueous One), HUVEC; assay type: cell-based; conditions: Homo sapiens, 72 h treatment, mean ± SD
Protocol: (§1) Supplementary Table 7. Results of cytotoxicity studies.
(§2) Metabolic activity assessment
(§3) Cells of the HepG2 line ( ATCC® HB-8065™) and HUVEC ( ATCC® CRL-1730™) were cultured in Dulbecco’s Modified Eagle Medium (DMEM; Sigma-Aldrich, St. Louis, MO, USA) supplemented with 10% heat -deactivated FBS (Gibco, Grand Island/NY, USA), 2 mM L -glutamine, 100 U/mL penicillin, 100 µg/mL streptomycin (all from Sigma -Aldrich) in a humidified chamber at 37 °C and 5% CO2. The experiments were carried out on passages 7 - 9 for both cell lines. The tested compounds were dissolved in DMSO and further diluted in culture medium to a desired final concentration. […]
(§4) 10^4 cells/mL (100 µL/well) and after attachm ent treated with seven different concentration of the selected compounds or corresponding vehicle as control. The metabolic activity was assessed after 72 h treatment using the CellTiter 96 Aqueous One Solution Cell Proliferation Assay (Promega, Madison/WI, USA), in accordance with the manufacturer’s instructions .7 The absorbance was measured at 492 nm on an automated microplate reader BioTek Synergy HT (BioTek Instruments, Inc.). Data are presented as IC 50 value (mean ± SD) from two independent experiments , each conducted in duplicate or triplicate. IC 50 values were calculated by a non -linear regression model using Graph Pad Prism 7 software. […]

HepG2 = assay: Metabolic activity assessment (CellTiter 96 Aqueous One), HepG2; assay type: cell-based; conditions: Homo sapiens, 72 h treatment, mean ± SD
Protocol: as §1, §2, §3, §4

hERG potassium channel = molecular target: T1, hERG potassium channel (Homo sapiens, UniProt Q12809); assay: FP-based hERG binding assay (Invitrogen kit)
T1 construct: purchased Invitrogen (kit); assay run at TCG Lifesciences Pvt; Ltd. India
T1 sequence (Q12809 whole entry): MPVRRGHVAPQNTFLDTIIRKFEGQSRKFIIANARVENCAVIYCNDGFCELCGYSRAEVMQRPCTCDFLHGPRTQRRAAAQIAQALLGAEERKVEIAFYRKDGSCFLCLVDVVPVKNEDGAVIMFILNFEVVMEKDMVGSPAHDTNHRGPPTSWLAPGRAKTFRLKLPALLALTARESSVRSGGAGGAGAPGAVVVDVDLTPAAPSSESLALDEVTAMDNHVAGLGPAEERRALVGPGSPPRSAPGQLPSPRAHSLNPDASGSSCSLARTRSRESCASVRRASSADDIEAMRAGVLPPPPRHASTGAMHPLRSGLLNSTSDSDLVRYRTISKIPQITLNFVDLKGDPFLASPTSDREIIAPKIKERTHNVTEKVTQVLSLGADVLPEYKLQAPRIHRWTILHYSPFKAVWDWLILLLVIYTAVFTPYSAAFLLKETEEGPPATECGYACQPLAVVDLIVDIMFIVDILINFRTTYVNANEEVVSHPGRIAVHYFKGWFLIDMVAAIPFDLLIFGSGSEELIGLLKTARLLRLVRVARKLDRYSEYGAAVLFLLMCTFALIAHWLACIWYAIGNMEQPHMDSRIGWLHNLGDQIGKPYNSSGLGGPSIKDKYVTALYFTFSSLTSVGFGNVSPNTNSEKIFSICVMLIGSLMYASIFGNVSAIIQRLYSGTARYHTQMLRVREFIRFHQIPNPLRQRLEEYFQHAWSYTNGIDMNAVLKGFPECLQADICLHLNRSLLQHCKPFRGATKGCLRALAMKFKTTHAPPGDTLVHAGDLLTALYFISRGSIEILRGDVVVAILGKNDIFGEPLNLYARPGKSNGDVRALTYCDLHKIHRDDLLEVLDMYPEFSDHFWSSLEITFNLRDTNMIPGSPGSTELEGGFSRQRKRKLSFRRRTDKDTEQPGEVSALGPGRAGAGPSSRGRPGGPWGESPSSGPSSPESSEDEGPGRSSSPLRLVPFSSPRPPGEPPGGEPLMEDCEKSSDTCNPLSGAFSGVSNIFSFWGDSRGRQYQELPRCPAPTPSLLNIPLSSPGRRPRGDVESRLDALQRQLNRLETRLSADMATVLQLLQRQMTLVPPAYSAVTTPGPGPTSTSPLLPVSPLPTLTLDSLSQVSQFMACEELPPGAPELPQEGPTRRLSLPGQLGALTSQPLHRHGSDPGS
Protocol: Supplementary Table 7. Results of cytotoxicity studies. […]
Cardiovascular hERG inhibition
Cardiovascular safety profile was entirely outsourced. hERG screening was performed at TCG
Lifesciences Pvt. Ltd. India with FP -based hERG binding assay (Invitrogen kit).

S. aureus DNA gyrase [1] = molecular target: T2, S. aureus DNA gyrase (Staphylococcus aureus, UniProt P20831); assay: Gel-based S. aureus Gyrase Supercoiling assay (Inspiralis); assay type: biochemical
T2 construct: purchased Inspiralis (Norwich, UK)
Protocol: gyrase supercoiling assays
In all experiments, the activity of the enzyme was determined prior to the testing of the compounds and 1 U defined as the amount of enzyme required to fully supercoil the substrate. This amount of enzyme was used in all subsequent assays. The final DMSO concentration in all the reactions was 1% (v/v). Compounds were serially diluted in DMSO and added to the reaction before the addition of the […]
Staphylococcus aureus gyrase supercoiling assay
1 U of DNA gyrase was incubated with 0.5 μg of relaxed pBR322 DNA in a 30 μl reaction at 37 °C for 30 min under the following conditions: 40 mM HEPES·KOH (pH 7.6), 10 mM magnesium acetate, 10 mM DTT, 2 mM ATP, 500 mM potassium glutamate and 0.05 mg/ml BSA. Each reaction was stopped by the addition of 30 μl chloroform/iso-amyl alcohol (24:1) and 20 μl Stop Dye (40% sucrose, 100 mM Tris.HCl ( pH 7.5), 10 mM EDTA, 0.5 μg/ml bromophenol blue), before being loaded on a 1.0% TAE (Tris.acetate […], EDTA […]). Gels run at 70V for 3 hours.
Data acquisition and analysis
Bands were visualised by ethidium staining for 10 min, destained for 10 min in water and bands were analysed by gel documentation equipment (Syngene, Cambridge, UK) and quantitated using Syngene Gene Tools software. Raw gel data (fluorescent band volumes) collected from Syngene, GeneTools gel analysis software were converted to a % of the 100% control (the fully supercoiled or relaxed […]
global curve fit non-linear regression tool was used to calculate IC50 data using the following equation:
Equation: Exponential Decay, Single, 2 Parameter f = ae−bx
(1 picture or pasted object on this page, not shown here)
Target sequence in this assay (P20831 whole entry): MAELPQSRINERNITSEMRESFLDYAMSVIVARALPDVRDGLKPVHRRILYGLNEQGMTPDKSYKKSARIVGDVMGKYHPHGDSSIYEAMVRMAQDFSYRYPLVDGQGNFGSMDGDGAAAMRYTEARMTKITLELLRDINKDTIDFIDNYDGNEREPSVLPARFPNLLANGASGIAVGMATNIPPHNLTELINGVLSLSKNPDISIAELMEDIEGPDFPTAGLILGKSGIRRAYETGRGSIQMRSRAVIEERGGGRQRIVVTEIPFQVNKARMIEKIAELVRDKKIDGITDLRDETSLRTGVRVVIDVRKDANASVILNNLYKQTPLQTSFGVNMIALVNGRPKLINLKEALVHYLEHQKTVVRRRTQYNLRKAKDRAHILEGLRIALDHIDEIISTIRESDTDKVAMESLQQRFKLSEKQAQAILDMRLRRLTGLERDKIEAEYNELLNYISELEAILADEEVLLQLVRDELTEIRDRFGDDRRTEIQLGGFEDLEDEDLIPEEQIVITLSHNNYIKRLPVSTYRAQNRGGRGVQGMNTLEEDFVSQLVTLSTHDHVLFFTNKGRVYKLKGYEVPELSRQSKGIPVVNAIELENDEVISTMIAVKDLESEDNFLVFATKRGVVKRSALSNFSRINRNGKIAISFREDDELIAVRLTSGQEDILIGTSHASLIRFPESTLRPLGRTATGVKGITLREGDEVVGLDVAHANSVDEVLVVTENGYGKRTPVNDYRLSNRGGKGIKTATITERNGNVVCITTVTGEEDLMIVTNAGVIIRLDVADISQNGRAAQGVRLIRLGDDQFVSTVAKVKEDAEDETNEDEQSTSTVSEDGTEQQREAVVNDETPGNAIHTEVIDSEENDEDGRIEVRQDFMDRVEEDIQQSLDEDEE
Target sequence in this assay (P0A0K8 whole entry, further chain): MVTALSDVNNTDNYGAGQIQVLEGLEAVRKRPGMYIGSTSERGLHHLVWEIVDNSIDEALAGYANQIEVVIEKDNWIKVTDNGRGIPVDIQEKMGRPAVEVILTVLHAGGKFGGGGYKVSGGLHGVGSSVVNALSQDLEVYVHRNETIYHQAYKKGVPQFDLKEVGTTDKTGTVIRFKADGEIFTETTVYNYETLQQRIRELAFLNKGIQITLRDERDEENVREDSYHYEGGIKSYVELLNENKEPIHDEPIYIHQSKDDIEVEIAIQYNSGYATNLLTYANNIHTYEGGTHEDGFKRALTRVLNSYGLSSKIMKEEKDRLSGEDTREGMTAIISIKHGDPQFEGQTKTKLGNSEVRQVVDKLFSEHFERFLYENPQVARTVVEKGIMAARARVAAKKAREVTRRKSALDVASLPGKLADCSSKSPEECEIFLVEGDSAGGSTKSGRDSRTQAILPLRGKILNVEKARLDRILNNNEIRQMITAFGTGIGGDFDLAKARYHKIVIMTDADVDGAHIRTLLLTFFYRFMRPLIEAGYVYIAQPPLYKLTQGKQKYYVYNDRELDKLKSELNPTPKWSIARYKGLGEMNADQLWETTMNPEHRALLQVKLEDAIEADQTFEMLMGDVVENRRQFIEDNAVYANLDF

S. aureus DNA gyrase [2] = molecular target: T2, S. aureus DNA gyrase; assay: Gyrase Supercoiling High Throughput Plate Assay (fluorescence), S. aureus; assay type: biochemical; conditions: fluorescence-based high throughput plate assay
Protocol: A Gyrase Supercoiling High Throughput Plate Assay kit, purchased from Inspiralis (Norwich. UK), was used to determine IC50 values of compounds on S. aureus and E. coli gyrase. […] Biotinylated oligonucleotide in wash buffer was immobilized onto the wells, and the excess oligonucleotide was washed off with wash buffer and ultrapure water. […] The reactions were stopped by adding the TF buffer (50 mM NaOAc (pH 4.7), 50 mM NaCl, and 50 mM MgCl2) to allow the triplex formation (biotin–oligonucleotide–plasmid) for an additional 30 min. Afterward, the unbound plasmid was washed off using TF buffer, and the solution of Promega Diamond dye in T10 buffer (10 mM Tris-HCl (pH 8.0), 1 mM EDTA) was added. […] Preliminary screening was performed at four inhibitor concentrations of 100, 10, 1, and 0.1 μM. […] IC50 was calculated using nonlinear regression-based fitting of inhibition curves using log [inhibitor] versus response-variable slope (four parameters)—symmetrical equation in the GraphPad Prism 6.0 software (GraphPad Software, La Jolla, CA, USA, www.graphpad.com). IC50 values represent the mean of two to four independent measurements.
Target sequence in this assay (P20831 whole entry): as the sequence (P20831 whole entry) above
Target sequence in this assay (P0A0K8 whole entry partner): as the sequence (P0A0K8 whole entry, further chain) above

S. aureus (ATCC 29213) = assay: Broth microdilution MIC, S. aureus; assay type: cell-based; conditions: Staphylococcus aureus, ATCC29213, 20 h, 37 °C
Protocol: (§5) Antimicrobial assays were performed by the broth microdilution method in 96-well plate format according to the Clinical and Laboratory Standards Institute guidelines[46] and European Committee on Antimicrobial Susceptibility Testing recommendations. First, bacterial suspensions of specific bacterial strains was prepared to obtain density equivalent to 0.5 McFarland turbidity standard, followed by dilution with cation-adjusted Mueller Hinton broth with TES (Thermo Fisher Scientific), to obtain a final inoculum of 10^5 colony-forming units/mL. Compounds were dissolved in DMSO and twofold dilutions were prepared, then inoculum was added and the mixture was incubated for 20 h at 37 °C. After incubation, the MIC values were read off by visual assessment as the lowest dilution of compound showing no turbidity. The MICs were determined against S. aureus (ATCC 29213), MRSA (NCTC12493), E. coli (ATCC 25922), E. coli D22, and E. coli N43 bacterial strains. Tetracycline was used as a positive control on every assay plate, displaying MICs of 0.5 and 1 μg/mL for S. aureus and E. coli, respectively.

E. coli (ATCC 25922) = assay: Broth microdilution MIC, E. coli; assay type: cell-based; conditions: Escherichia coli, ATCC25922, 20 h, 37 °C
Protocol: as §5

MRSA (NCTC12493) = assay: Broth microdilution MIC, MRSA; assay type: cell-based, S. aureus; conditions: Staphylococcus aureus, 20 h, 37 °C
Protocol: as §5

| SMILES | IC50 (HUVEC) [µM] | IC50 (HepG2) [µM] | IC50 (hERG potassium channel) [nM] | IC50 (S. aureus DNA gyrase [2]) [nM] | further results |
| --- | --- | --- | --- | --- | --- |
| COc1ccc2nccc(CCN3CCC(NCc4ccc(Cl)cc4)CC3)c2n1 [Compound 4] | 27 ± 0.38 | 10.16 ± 0.1 | 270 | – | – |
| COc1ccc2nccc(CCN3CCC(NCc4ccc(I)cc4)CC3)c2n1 [Compound 6] | 19 ± 0.85 | 8.47 ± 0.09 | – | – | IC50 (S. aureus DNA gyrase [1]; read-out: S. aureus gyrase supercoiling IC50 Assay 1, gel-based assay, assay 1): 13 nM; IC50 (S. aureus DNA gyrase [1]; read-out: S. aureus gyrase supercoiling IC50 Assay 2, gel-based assay, assay 2): 9 nM; IC50 (hERG potassium channel; human, FP-based hERG binding assay kit (Invitrogen)): 180 nM |
| COc1ccc2nccc(CCN3CCC(NCc4ccc(Br)cc4)CC3)c2n1 [Compound 5] | 25.42 ± 0.01 | 9.37 ± 0.07 | 290 | – | IC50 (S. aureus DNA gyrase [1]; IC50 S. aureus DNA gyrase supercoiling, gel-based assay): 7 nM; IC50 (S. aureus DNA gyrase [1]; S. aureus gyrase supercoiling IC50 Assay 1, gel-based assay, assay 1): 7 nM; IC50 (S. aureus DNA gyrase [1]; S. aureus gyrase supercoiling IC50 Assay 2, gel-based assay, assay 2): 7 nM; IC50 (S. aureus DNA gyrase [1]; S. aureus gyrase supercoiling IC50 Average, gel-based assay, average of assay 1 and 2): 7 nM; IC50 (S. aureus DNA gyrase [1]; S. aureus inhibition (DNA supercoiling IC50), as quoted in point-by-point response): 7 nM; IC50 (S. aureus DNA gyrase [1]; S. aureus inhibition (DNA supercoiling IC50), as quoted in reviewer report): 7 nM |
| COc1ccc2nccc(CCN3CCC(NCc4ccccc4)CC3)c2n1 [Compound 2] | 54.1 ± 3.45 | 17.7 ± 2.16 | 1050 | 1020 | – |
| CN(C)[C@@H]1C(O)=C(C(N)=O)C(=O)[C@@]2(O)C(O)=C3C(=O)c4c(O)cccc4[C@@](C)(O)[C@H]3C[C@@H]12 [Tetracycline, reference compound] | – | – | – | – | MIC (S. aureus (ATCC 29213)): 0.5 µg/mL (≈ 1.13 µM); MIC (E. coli (ATCC 25922)): 1 µg/mL (≈ 2.25 µM) |
| COc1ccc2nccc(CCN3CCC(NCc4ccc(N(C)C)cc4)CC3)c2n1 [Compound 9] | 23.85 ± 0.09 | 10.03 ± 0.06 | 2110 | 67 | MIC (S. aureus (ATCC 29213)): 0.125 µg/mL (≈ 0.298 µM); MIC (MRSA (NCTC12493)): 0.25 µg/mL (≈ 0.596 µM) |
| COc1ccc2nccc(CCN3CCC(NCc4ccc(F)cc4)CC3)c2n1 [Compound 3] | > 50 | 12.7 ± 0.21 | 590 | 550 | – |
| COc1ccc2nccc(CCN3CCC(NCc4ccc(C(N)=O)cc4)CC3)c2n1 [Compound 8] | > 50 | – | 13400 | – | – |

From publication PMC7794245, “Potent DNA gyrase inhibitors bind asymmetrically to their target using symmetrical bifurcated halogen bonds” (Nature Communications, 2021)
